Test results from PMC4684500, “Diversity, Antimicrobial Action and Structure-Activity Relationship of Buffalo Cathelicidins” (PLoS ONE, 2015).
Converted amounts (≈) assume the structure as drawn. Read-outs that look alike come from different tables or passages of the source. Where no end group is shown, it is not given here.

Assays:
[1] = test system: Stahylococcus aureus ATCC-29213; format: cell-based, Staphylococcus aureus
Description: (§1) The buCATHL4 peptides were synthesized by G L Biochem (Shanghai, China). Purity and molecular mass of the peptides were provided by the vendors using HPLC and mass spectrometry, respectively. The purity of all peptides were >98%. Minimum inhibitory concentrations (MIC) of buCATHL4s against the pathogenic microorganisms were tested by broth micro-dilution technique. Briefly, bacteria were grown in Mueller Hinton broth (Sigma-Aldrich, MO, USA) at 37°C. The OD of early-log phase cultures were adjusted to 0.08–0.1 and further diluted (1:200) to keep inoculums concentration nearly 10^6 colony forming units (CFU)/ml. Diluted peptides (10 μl) were mixed with equi-volume solution A (0.02% acetic acid containing 0.4% BSA) and were serially diluted in the solution B (0.01% acetic acid containing 0.2% BSA). Bacterial inoculums (90 μl) were mixed with serially diluted peptides and incubated at 37°C for 24 h without shaking. […] All peptides were tested in triplicate. For time kill kinetics experiments, peptides (1×, 2× and 4× MIC) were added to bacterial suspension of Staphylococcus aureus, Salmonella enterica and Pseudomonas aeruginosa, as described in the MIC determination method. Aliquots of representative wells were diluted and plated on Muller Hinton agar plates at 0, 1, 4, 12 and 24 h intervals. Water with 0.01% acetic acid and ampicillin (100 mg/ml) were taken as […] controls, respectively. The results were represented as log CFU/ml.

[2] = test system: Stahylococcus aureus NCDC-0111; format: cell-based, Staphylococcus aureus
Description: as §1

[3] = test system: Acinetobacter johnsonii NCDC-0072; format: cell-based
Description: as §1

[4] = test system: Bacillus cereus NCDC-0240; format: cell-based
Description: as §1

[5] = test system: Escherichia coli MTCC-0723; format: cell-based
Description: as §1

[6] = test system: Listeria monocytogenes ATCC-19111; format: cell-based
Description: as §1

[7] = test system: Pseudomonas aeruginosa ATCC-27853; format: cell-based
Description: as §1

[8] = test system: Pseudomonas aeruginosa NCDC-0105; format: cell-based
Description: as §1

[9] = test system: Salmonella typhimurium ATCC-14028; format: cell-based
Description: as §1

S. aureus biofilm = assay: Biofilm assay (crystal violet); format: cell-based, Staphylococcus aureus; settings: peptide at 1× and 2× MIC, 24 h 37°C, crystal violet A570
Description: (§2) The efficacy of peptides against biofilms of S. aureus and P. aeruginosa was determined using previously described method. Overnight grown bacterial cultures were diluted (1:100) and 200 μl suspensions were mixed with each peptide (1× and 2× MIC) in a 96 well plate and incubated for 24 h at 37°C. Biofilms were fixed with paraformadehyde solution, cultures were decanted and 0.1% crystal violet solution was added to stain the film. The plate was rinsed thrice with water and air-dried. The stain was dissolved by 100 μl of acetic acid (30%) and absorbance was measured at 570 nm. The experiment was performed in triplicate, 30% acetic acid was taken as a blank.

P. aeruginosa biofilm = assay: Biofilm assay (crystal violet); format: cell-based, Pseudomonas aeruginosa; settings: 24 h 37°C, crystal violet A570
Description: as §2

S. aureus [10] = assay: Time kill kinetics; format: cell-based, Staphylococcus aureus; settings: for Time to complete elimination of S. aureus: peptide at 4× MIC, time kill kinetics; for Growth inhibition of S. aureus in time kill kinetics: peptide at 2× MIC, plating at 0, 1, 4, 12, 24 h
Description: as §1

[11] = test system: S. aureus, S. typhimurium and P. aeruginosa; assay: Time kill kinetics, three pathogens; format: cell-based; settings: peptide at 4× MIC
Description: as §1

[12] = test system: bacterial biofilm (S. aureus and P. aeruginosa); assay: Biofilm assay, overall statement; format: cell-based; settings: summary in discussion
Description: as §2

S. aureus [13] = assay: LIVE/DEAD BacLight membrane permeability assay; format: cell-based, Staphylococcus aureus; settings: peptide 200μM, log phase culture, SYTO9/PI
Description: (§3) The damage to bacterial membrane following addition of peptide was assessed by BacLight kit (Life Technologies, CA, USA). Aliquots of S. aureus, S. enterica and P. aeruginosa cultures from exponential (shaking incubation for 2, 3, and 4 h, respectively) and stationary phases (overnight incubation) were harvested by centrifugation (5000 g for 10 min) and diluted in PBS. Peptides (200μM) were added to bacterial suspension and 50 μl aliquots were removed immediately or after 1 h incubation. Equi-volume mixtures of SYTO9/PI (3 μl/ml bacterial suspension) were added to these aliquots and fluorescent micrographs of stained bacteria were taken at 1000×magnification in a microscope (Olympus BX51 fitted with DP71 camera) with a fluorescence illuminator system.

S. typhimurium [14] = assay: LIVE/DEAD BacLight membrane permeability assay; format: cell-based, Salmonella typhimurium; settings: peptide 200μM, SYTO9/PI; for Clumping (agglutination) of S. typhimurium after peptide addition: log phase culture; for Membrane permeability of latent (stationary phase) S. typhimurium: stationary phase culture, proportion of cells affected comparatively less
Description: as §3

S. aureus [15] = assay: Scanning and transmission electron microscopy; format: cell-based, Staphylococcus aureus
Description: (§4) Early log phase cultures of S. aureus and S. enterica were subjected to different concentration of peptides and incubated at 37°C. The bacterial pellets after centrifugation (5000 g for 10 min) were washed with 0.1M cacodylate buffer (pH 7.2) and were fixed in 2.5% gluteraldehyde at 4°C for 2 h. For scanning electron microscopy, bacteria were dehydrated using gradient series of ethanol wash (30, 50, 70, 90 and absolute). The samples were air-dried overnight, gold coated (Eiko IB-3 ion coater), and viewed in a Zeiss EVO 18 Special Edition SEM. For transmission electron microscopy, fixed samples were adhered to hexagonal PELCO® Grids (Ted Pella, Inc. USA), washed once with Mili-Q water and stained with uranyl acetate (2%) buffer. Samples were viewed in a JEM 1011 (Jeol, Japan) microscope.

S. typhimurium [16] = assay: Scanning and transmission electron microscopy; format: cell-based, Salmonella typhimurium; settings: for Morphological change of S. typhimurium cells (SEM/TEM): increasing concentrations (>2× MIC)
Description: as §4

[17] = increasing concentrations (>2× MIC)

## CC[C@H](C)[C@H](N)C(=O)N[C@@H](CC(C)C)C(=O)N1CCC[C@H]1C(=O)N[C@@H](Cc1c[nH]c2ccccc12)C(=O)N[C@@H](CCCCN)C(=O)N[C@@H](Cc1c[nH]c2ccccc12)C(=O)N1CCC[C@H]1C(=O)N[C@@H](Cc1c[nH]c2ccccc12)C(=O)N[C@@H](Cc1c[nH]c2ccccc12)C(=O)N1CCC[C@H]1C(=O)N[C@@H](Cc1c[nH]c2ccccc12)C(=O)N[C@@H](CCCNC(=N)N)C(=O)N[C@@H](CCCNC(=N)N)C(N)=O [Indolicidin, indolicidin, reference compound]
[1]; Stahylococcus aureus ATCC-29213, broth microdilution, Mueller Hinton broth, ~10^6 CFU/ml, 37°C 24 h, no visible turbidity, triplicate
  MIC: 3 µM (≈ 5.72 µg/mL)
[2]; Stahylococcus aureus NCDC-0111, broth microdilution, Mueller Hinton broth, ~10^6 CFU/ml, 37°C 24 h, no visible turbidity, triplicate
  MIC: 1.5 µM (≈ 2.86 µg/mL)
[3]; Acinetobacter johnsonii NCDC-0072, broth microdilution, Mueller Hinton broth, ~10^6 CFU/ml, 37°C 24 h, no visible turbidity, triplicate
  MIC: 6 µM (≈ 11.4 µg/mL)
[4]; Bacillus cereus NCDC-0240, broth microdilution, Mueller Hinton broth, ~10^6 CFU/ml, 37°C 24 h, no visible turbidity, triplicate
  MIC: 0.8 µM (≈ 1.53 µg/mL)
[5]; Escherichia coli MTCC-0723, broth microdilution, Mueller Hinton broth, ~10^6 CFU/ml, 37°C 24 h, no visible turbidity, triplicate
  MIC: 0.8 µM (≈ 1.53 µg/mL)
[6]; Listeria monocytogenes ATCC-19111, broth microdilution, Mueller Hinton broth, ~10^6 CFU/ml, 37°C 24 h, no visible turbidity, triplicate
  MIC: 6 µM (≈ 11.4 µg/mL)
[7]; Pseudomonas aeruginosa ATCC-27853, broth microdilution, Mueller Hinton broth, ~10^6 CFU/ml, 37°C 24 h, no visible turbidity, triplicate
  MIC: 25 µM (≈ 47.7 µg/mL)
[8]; Pseudomonas aeruginosa NCDC-0105, broth microdilution, Mueller Hinton broth, ~10^6 CFU/ml, 37°C 24 h, no visible turbidity, triplicate
  MIC: 12.5 µM (≈ 23.8 µg/mL)
[9]; Salmonella typhimurium ATCC-14028, broth microdilution, Mueller Hinton broth, ~10^6 CFU/ml, 37°C 24 h, no visible turbidity, triplicate
  MIC: 12.5 µM (≈ 23.8 µg/mL)
S. aureus biofilm
  Reduction in biofilm growth of S. aureus: effective
P. aeruginosa biofilm; peptide at 1× and 2× MIC
  Reduction in biofilm growth of P. aeruginosa: effective

## AIPWSIWWHLLFKG [buCATHL4G]
[1]; ATCC-29213, 24 h
  MIC: 0.8 µM
[2]; 24 h
  MIC: 12.5 µM
[3]; 24 h
  MIC: 25 µM
[4]; NCDC-0240, 24 h
  MIC: 50 µM
[5]; MTCC-0723, 24 h
  MIC: 50 µM
[6]; ATCC-19111, 24 h
  MIC: 1.5 µM
[7]; ATCC-27853, 24 h
  MIC: 200 µM
[8]; NCDC-0105, 24 h
  MIC: 200 µM
[9]; ATCC-14028, 24 h
  MIC: 3 µM
S. aureus [10]
  Time to complete elimination of S. aureus: 4 h
[11]
  Killing rate compared with indolicidin and ampicillin: comparatively better killing rate
[12]
  Effect against growth of bacterial biofilms (overall): no marked effect
S. aureus [13]
  Clumping (agglutination) of S. aureus after peptide addition: immediate clumping
S. typhimurium [14]
  Clumping (agglutination) of S. typhimurium after peptide addition: immediate clumping
S. aureus [15]; [17]
  Morphological change of S. aureus cells (SEM/TEM): budding
S. aureus [15]; lower concentrations (≤2× MIC)
  Morphological change of S. aureus cells (SEM/TEM): swelling and blebing
S. typhimurium [16]
  Morphological change of S. typhimurium cells (SEM/TEM): budding

## AIPWSIWWRLLFKG [buCATHL4F]
[1]; ATCC-29213, 24 h
  MIC: 6 µM
[2]; 24 h
  MIC: 6 µM
[3]; 24 h
  MIC: 200 µM
[4]; NCDC-0240, 24 h
  MIC: 100 µM
[5]; MTCC-0723, 24 h
  MIC: >200 µM
[6]; ATCC-19111, 24 h
  MIC: 3 µM
[7]; ATCC-27853, 24 h
  MIC: 100 µM
[8]; NCDC-0105, 24 h
  MIC: 50 µM
[9]; ATCC-14028, 24 h
  MIC: 0.2 µM
S. aureus [10]
  Growth inhibition of S. aureus in time kill kinetics: complete growth inhibition
  Time to complete elimination of S. aureus: 4 h
P. aeruginosa biofilm; peptide at 2× MIC
  Reduction in biofilm growth of P. aeruginosa: considerably
[12]
  Effect against growth of bacterial biofilms (overall): no marked effect
S. aureus [13]
  Clumping (agglutination) of S. aureus after peptide addition: immediate clumping
S. typhimurium [14]
  Clumping (agglutination) of S. typhimurium after peptide addition: immediate clumping
  Membrane permeability of latent (stationary phase) S. typhimurium: affected membrane permeability
S. aureus [15]; [17]
  Morphological change of S. aureus cells (SEM/TEM): budding
S. aureus [15]; lower concentrations (≤2× MIC)
  Morphological change of S. aureus cells (SEM/TEM): swelling and blebing
S. typhimurium [16]
  Morphological change of S. typhimurium cells (SEM/TEM): budding

## GLPWILLRWLFFRG [buCATHL4A]
[1]; ATCC-29213, 24 h
  MIC: 3 µM
[2]; 24 h
  MIC: 25 µM
[3]; 24 h
  MIC: 200 µM
[4]; NCDC-0240, 24 h
  MIC: 100 µM
[5]; MTCC-0723, 24 h
  MIC: 200 µM
[6]; ATCC-19111, 24 h
  MIC: 6 µM
[7]; ATCC-27853, 24 h
  MIC: >200 µM
[8]; NCDC-0105, 24 h
  MIC: >200 µM
[9]; ATCC-14028, 24 h
  MIC: 100 µM

## RIRFPWPWRWPWWPRFRG [buCATHL4D]
[1]; ATCC-29213, 24 h
  MIC: 6 µM
[2]; 24 h
  MIC: 12.5 µM
[3]; 24 h
  MIC: 50 µM
[4]; NCDC-0240, 24 h
  MIC: 1.5 µM
[5]; MTCC-0723, 24 h
  MIC: 6 µM
[6]; ATCC-19111, 24 h
  MIC: 6 µM
[7]; ATCC-27853, 24 h
  MIC: 25 µM
[8]; NCDC-0105, 24 h
  MIC: 50 µM
[9]; ATCC-14028, 24 h
  MIC: 50 µM
S. aureus [10]
  Growth inhibition of S. aureus in time kill kinetics: complete growth inhibition
[11]
  Killing rate compared with indolicidin and ampicillin: comparatively better killing rate
S. aureus biofilm
  Reduction in biofilm growth of S. aureus: substantial
P. aeruginosa biofilm; peptide at 1× and 2× MIC
  Reduction in biofilm growth of P. aeruginosa: substantial
S. typhimurium [14]
  Membrane permeability of latent (stationary phase) S. typhimurium: affected membrane permeability
S. typhimurium [16]; more evident with S. typhimurium
  Formation of negative curvature on membrane (SEM/TEM): Formation of negative curvature
